# Experimental data taken from patent US10550105B2 (Ribon Therapeutics Inc., priority 2018, dated 2020).
# Biological target: PARP7 (Homo sapiens (Human), UniProt Q7Z3E1)
# Assay: Enzymatic assay for inhibition of PARP7: TR-FRET displacement of biotinylated Probe A from the TIPARP active site
# Type: binding
# Details: Table A-1
# In short: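 Percent inhibition derives from the ratio of 665 to 615 nm emission, which reports how much Probe A remains bound to TIPARP. Plates sat 30 min at 25° C before the time-resolved read (320 nm excitation).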
# Sequence of PARP7 (Q7Z3E1 whole entry): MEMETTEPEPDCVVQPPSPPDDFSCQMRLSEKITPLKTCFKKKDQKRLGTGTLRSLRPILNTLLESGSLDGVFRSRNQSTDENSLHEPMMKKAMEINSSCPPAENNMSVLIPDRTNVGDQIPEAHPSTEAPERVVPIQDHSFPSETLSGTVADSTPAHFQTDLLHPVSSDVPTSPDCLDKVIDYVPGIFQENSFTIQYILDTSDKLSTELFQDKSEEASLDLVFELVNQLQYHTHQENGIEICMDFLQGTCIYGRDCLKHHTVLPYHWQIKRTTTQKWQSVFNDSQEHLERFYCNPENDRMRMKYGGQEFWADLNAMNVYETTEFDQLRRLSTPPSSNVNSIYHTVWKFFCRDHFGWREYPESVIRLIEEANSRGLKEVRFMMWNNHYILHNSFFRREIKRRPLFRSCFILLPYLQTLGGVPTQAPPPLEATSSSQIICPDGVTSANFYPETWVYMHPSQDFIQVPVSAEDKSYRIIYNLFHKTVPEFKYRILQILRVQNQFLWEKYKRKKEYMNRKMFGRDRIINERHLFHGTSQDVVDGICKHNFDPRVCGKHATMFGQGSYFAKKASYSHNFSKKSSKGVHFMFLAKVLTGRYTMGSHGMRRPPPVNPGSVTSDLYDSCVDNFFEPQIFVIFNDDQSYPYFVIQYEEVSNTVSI
row,SMILES,IC50 [nM]
1,"O=c1[nH]ncc(N2Cc3ccccc3C2)c1Cl [Example 151, 4-Chloro-5-(isoindolin-2-yl)pyridazin-3(2H)-one]",100 to 1000
2,"O=c1[nH]ncc(N2Cc3ccncc3C2)c1Cl [Example 152, 4-Chloro-5-(1,3-dihydro-2H-pyrrolo[3,4-c]pyridin-2-yl)pyridazin-3(2H)-one]",100 to 1000
3,"O=c1[nH]ncc(N2Cc3cccnc3C2)c1Cl [Example 154, 4-Chloro-5-(5,7-dihydro-6H-pyrrolo[3,4-b]pyridin-6-yl)pyridazin-3(2H)-one]",100 to 1000
4,"COc1ccc2c(c1)CN(c1cn[nH]c(=O)c1Cl)C2 [Example 155, 4-Chloro-5-(5-methoxyisoindolin-2-yl)pyridazin-3(2H)-one]",100 to 1000
5,"COCCOc1ccc2c(c1)CN(c1cn[nH]c(=O)c1Cl)C2 [Example 156, 4-Chloro-5-(5-(2-methoxyethoxy)isoindolin-2-yl)pyridazin-3(2H)-one]",100 to 1000
6,"O=c1[nH]ncc(N2Cc3ccc(OCCO)cc3C2)c1Cl [Example 157, 4-Chloro-5-(5-(2-hydroxyethoxy)isoindolin-2-yl)pyridazin-3(2H)-one]",100 to 1000
7,"Cc1c(N2Cc3ccccc3C2)cn[nH]c1=O [Example 159, 5-(Isoindolin-2-yl)-4-methylpyridazin-3(2H)-one]",≥ 1000
8,"O=c1[nH]ncc(N2Cc3cccc(OCCO)c3C2)c1Cl [Example 161, 4-Chloro-5-(4-(2-hydroxyethoxy)isoindolin-2-yl)pyridazin-3(2H)-one]",100 to 1000
9,"COCCOc1cccc2c1CN(c1cn[nH]c(=O)c1Cl)C2 [Example 162, 4-Chloro-5-(4-(2-methoxyethoxy)isoindolin-2-yl)pyridazin-3(2H)-one]",100 to 1000
10,"CN(C)CCOc1cccc2c1CN(c1cn[nH]c(=O)c1Cl)C2 [Example 166, 4-Chloro-5-(4-(2-(dimethylamino)ethoxy)isoindolin-2-yl)pyridazin-3(2H)-one]",≥ 1000
11,"COc1ccc2c(c1)CN(c1cn[nH]c(=O)c1C)C2 [Example 173, 5-(5-Methoxyisoindolin-2-yl)-4-methylpyridazin-3(2H)-one]",100 to 1000
12,"N#Cc1c(N2Cc3cccc(OCCO)c3C2)cn[nH]c1=O [Example 176, 5-(4-(2-Hydroxyethoxy)isoindolin-2-yl)-3-oxo-2,3-dihydropyridazine-4-carbonitrile]",≥ 1000
13,"N#Cc1c(N2Cc3cccc(OC4CCNCC4)c3C2)cn[nH]c1=O [Example 182, 3-Oxo-5-(4-(piperidin-4-yloxy)isoindolin-2-yl)-2,3-dihydropyridazine-4-carbonitrile formic acid]",≥ 1000
14,"O=c1[nH]ncc(N2Cc3cccc(OC4CCNCC4)c3C2)c1C1CC1 [Example 183, 4-Cyclopropyl-5-(4-(piperidin-4-yloxy)isoindolin-2-yl)pyridazin-3(2H)-one formic acid]",≥ 1000
15,"COc1c(N2Cc3cccc(OCCO)c3C2)cn[nH]c1=O [Example 184, 5-(4-(2-Hydroxyethoxy)isoindolin-2-yl)-4-methoxypyridazin-3(2H)-one]",≥ 1000

# Second part, the compound after the results:
row,IC50 [nM],SMILES
1,< 100,"O=c1[nH]ncc(N2Cc3ccc(OC4CCNCC4)cc3C2)c1C(F)(F)F [Example 150, 5-[5-(Piperidin-4-yloxy)-2,3-dihydro-1H-isoindol-2-yl]-4-(trifluoromethyl)-2,3-dihydropyridazin-3-one]"
2,100 to 1000,"COc1cccc2c1CN(c1cn[nH]c(=O)c1Cl)C2 [Example 153, 4-Chloro-5-(4-methoxyisoindolin-2-yl)pyridazin-3(2H)-one]"
3,100 to 1000,"O=c1[nH]ncc(N2Cc3ccc(OC4CCNCC4)cc3C2)c1Cl [Example 158, 4-Chloro-5-(5-(piperidin-4-yloxy)isoindolin-2-yl)pyridazin-3(2H)-one]"
4,< 100,"O=c1[nH]ncc(N2Cc3ccccc3C2)c1C(F)(F)F [Example 160, 5-(Isoindolin-2-yl)-4-(trifluoromethyl)pyridazin-3(2H)-one]"
5,≥ 1000,"NCCOc1cccc2c1CN(c1cn[nH]c(=O)c1Cl)C2 [Example 163, 5-(4-(2-Aminoethoxy)isoindolin-2-yl)-4-chloropyridazin-3(2H)-one]"
6,< 100,"COc1cccc2c1CN(c1cn[nH]c(=O)c1C(F)(F)F)C2 [Example 164, 5-(4-Methoxyisoindolin-2-yl)-4-(trifluoromethyl)pyridazin-3(2H)-one]"
7,≥ 1000,"O=c1[nH]ncc(N2Cc3cccc(OC4CCNCC4)c3C2)c1Cl [Example 165, 4-Chloro-5-(4-(piperidin-4-yloxy)isoindolin-2-yl)pyridazin-3(2H)-one]"
8,100 to 1000,"COc1cccc2c1CN(c1cn[nH]c(=O)c1C)C2 [Example 167, 5-(4-Methoxyisoindolin-2-yl)-4-methylpyridazin-3(2H)-one]"
9,100 to 1000,"O=c1[nH]ncc(N2Cc3cccc(OCCO)c3C2)c1Br [Example 168, 4-Bromo-5-(4-(2-hydroxyethoxy)isoindolin-2-yl)pyridazin-3(2H)-one]"
10,< 100,"O=c1[nH]ncc(N2Cc3ccc(F)cc3C2)c1C(F)(F)F [Example 169, 5-(5-Fluoroisoindolin-2-yl)-4-(trifluoromethyl)pyridazin-3(2H)-one]"
11,< 100,"O=c1[nH]ncc(N2Cc3cccc(OC4CCNCC4)c3C2)c1C(F)(F)F [Example 170, 5-(4-(Piperidin-4-yloxy)isoindolin-2-yl)-4-(trifluoromethyl)pyridazin-3(2H)-one]"
12,≥ 1000,"Cc1c(N2Cc3cccc(OCCO)c3C2)cn[nH]c1=O [Example 171, 5-(4-(2-Hydroxyethoxy)isoindolin-2-yl)-4-methylpyridazin-3(2H)-one]"
13,100 to 1000,"O=c1[nH]ncc(N2Cc3cccc(OC4CCNCC4)c3C2)c1Br [Example 172, 4-Bromo-5-(4-(piperidin-4-yloxy)isoindolin-2-yl)pyridazin-3(2H)-one]"
14,< 100,"COc1ccc2c(c1)CN(c1cn[nH]c(=O)c1C(F)(F)F)C2 [Example 174, 5-(5-Methoxyisoindolin-2-yl)-4-(trifluoromethyl)pyridazin-3(2H)-one]"
15,≥ 1000,"Cc1c(N2Cc3cccc(OC4CCNCC4)c3C2)cn[nH]c1=O [Example 175, 4-Methyl-5-(4-(piperidin-4-yloxy)isoindolin-2-yl)pyridazin-3(2H)-one]"
16,< 100,"O=c1[nH]ncc(N2Cc3ccc(OCCO)cc3C2)c1C(F)(F)F [Example 177, 5-(5-(2-Hydroxyethoxy)isoindolin-2-yl)-4-(trifluoromethyl)pyridazin-3(2H)-one]"
17,< 100,"CN(C)c1cccc2c1CN(c1cn[nH]c(=O)c1C(F)(F)F)C2 [Example 178, 5-(4-(Dimethylamino)isoindolin-2-yl)-4-(trifluoromethyl)pyridazin-3(2H)-one]"
18,100 to 1000,"CC(=O)Nc1cccc2c1CN(c1cn[nH]c(=O)c1C(F)(F)F)C2 [Example 179, N-(2-(6-Oxo-5-(trifluoromethyl)-1,6-dihydropyridazin-4-yl)isoindolin-4-yl)acetamide]"
19,< 100,"O=c1[nH]ncc(N2Cc3cccc(F)c3C2)c1C(F)(F)F [Example 180, 5-(4-Fluoroisoindolin-2-yl)-4-(trifluoromethyl)pyridazin-3(2H)-one]"
20,< 100,"O=c1[nH]ncc(N2Cc3cccc(OCCO)c3C2)c1C(F)(F)F [Example 181, 5-(4-(2-Hydroxyethoxy)isoindolin-2-yl)-4-(trifluoromethyl)pyridazin-3(2H)-one]"
